Experimental data reported in publication PMC6829886, “Inhibition of Non-Small Cell Lung Cancer Cells by Oxy210, an Oxysterol-Derivative that Antagonizes TGFβ and Hedgehog Signaling” (Cells, 2019).

Assays:
A549 cells = experiment: TGFβ-induced drug resistance (carboplatin) assay, cell counting; assay type: cell-based, human; settings: TGFβ1 ± Oxy210 (5 μM) 3 days, then 20 μM CP 4 days
Protocol: A549 and H2030 cells cultured in RPMI 1640 containing 5% FBS in 12 well-plates at 20% confluence were treated with Oxy210 for 6 days and then trypsinized, spun down and resuspended in fresh medium. For the Carboplatin (CP) and Oxy210 co-treatment experiments, A549 cells cultured in RPMI 1640 containing 2% FBS in 12 well-plates at 20% confluence were treated with CP at different concentrations in the presence or absence of Oxy210 for 6 days. For the TGFβ-induced drug resistance assay, A549 cells cultured in RPMI 1640 containing 2% FBS in 12 well-plates at 10% confluence were pre-treated with TGFβ1 alone or together with Oxy210 for 3 days, and then treated with 20 μM CP for 4 days. An aliquot of cell suspension was applied to a hemocytometer and the cells were then counted under a light microscope.
Figure 10 Effect of Oxy210 on TGFβ-induced resistance to carboplatin. A549 cells were treated with the agents as indicated (in front of --) in RPMI 1640 containing 2% FBS for 3 days, and then treated with the agents as indicated (after --) for 4 days. The cells were then trypsinized and counted. Data from a representative experiment are reported as the mean of triplicate determinations ± SD (## p < 0.01 vs. Control--Control; ++ p < 0.01 vs. Control--CP; ** p < 0.01 vs. TGFβ--CP).

[1] = system: EGF or Il-1β target gene expression (fibronectin, IL-6) in NIH3T3-E1 or A549 cells; experiment: Target gene expression after stimulation with EGF or Il-1β (pathway specificity); assay type: cell-based
Source text: We content that the biological properties of Oxy210 described here are specific inhibitory effects, by and large limited to Hh and TGF β signaling, rather than the result of nonspecific binding events and/or a pan inhibition of cellular signaling.

Liver X Receptor (LXR) = assay type: cell-based; settings: mouse
[2] = system: Gli responsive luciferase reporter (endogenous Gli); experiment: Gli responsive luciferase reporter in Sufu-/- cells; assay type: cell-based, mouse; settings: 72 hrs
Protocol: NIH3T3-E1 cells cultured in 24 well-plates at 90% confluence were transiently transfected with 0.1 μg of Smad response-element reporter (SBE-Luciferase) plasmid (Qiagen), or with 0.1 μg of Gli response-element reporter (pGL3b-8xGli-Luciferase) plasmid, and 10 ng of pSV40-Renilla-Luciferase plasmid (Promega, Madison, WI, USA) with or without co-transfection with 10ng of Gli1 overexpression vector, pSRα-Gli1 using a Lipofectamine LTX Plus transfection reagent, as previously described. Sufu-/- cells cultured in 24 well-plates at 90% confluence were transiently transfected with 0.1μg of pGL3b-8xGli-Luciferase plasmid, and 10 ng of pSV40-Renilla-Luciferase plasmid. 6 hrs after transfection, cells were treated with test agents for 72 h. […] Then the firefly and Renilla luciferase activities were measured using a dual luciferase kit (Promega) and a GloMax-96 Microplate Luminometer (Promega) or a plate reader-SpectraMax iD3 (Molecular Devices, San Jose, CA, USA). […]
Figure 5 Oxy210 acts downstream of Smo. […] After 72 h, RNA was extracted and analyzed by Q-RT-PCR for the expression of Hh target genes Gli1 and Hip, normalized to Oaz1 expression. […] Luciferase activity was measured and normalized to the Renilla luciferase activity. […]

[3] = Dose escalation study with repeated once daily oral dosing for 7 days in mice; assay type: in vivo; settings: once daily oral 50, 200 and 400 mg/kg for 7 days
Protocol: In an initial assessment of drug-like properties of Oxy210, we performed a pharmacokinetic (PK) study in mice. Oxy210, formulated in 3% DMSO + 7% Ethanol + 5% PEG400 + 85% corn oil, was administered to balb/c mice by oral gavage as a single dose of 50 mg/kg. Plasma samples were taken at 10 min, 30 min, 1 h, 2 h, 4 h, and 8h, followed by LC/MS analysis. […] Additional PK studies in mice were performed with Oxy210 in a dose escalation study with repeated once daily oral dosing (50 mg/kg, 200 mg/kg and 400 mg/kg) for 7 days.

For `C[C@]12CC[C@H]3[C@@H](CC=C4C[C@@H](O)CC[C@@]43C)[C@@H]1CC[C@@H]2[C@](C)(O)CCc1cccnc1` [Oxy210, (3S,8S,9S,10R,13S,14S,17S)-17-((R)-2-hydroxy-4-(pyridin-3-yl)butan-2-yl)-10,13-dimethyl-2,3,4,7,8,9,10,11,12,13,14,15,16,17-tetradecahydro-1H-cyclopenta[a]phenanthren-3-ol], the “sensitivity to CP after TGFβ1 pre-treatment (TGFβ-induced CP resistance)” value (A549 cells) was “fully restored CP drug sensitivity”, the “inhibition of EGF or Il-1β target gene expression (fibronectin, IL-6)” value [1] was “did not result in significant inhibition” and the ABCA1 expression (Liver X Receptor (LXR)) was “absence of ABCA1 expression”. For the same compound, the “activity of Gli responsive luciferase reporter” value [2] was “significantly inhibited”, the PK linearity [3] was “linear PK parameters and exposure” and the tolerability [3] was “well tolerated and apparently safe”.
